Patent US20130165368A1, “ANTIMICROBIAL COMPOUNDS” (priority 2010, published 2013)
Values after ≈ are worked out from the molar mass of the structure shown.

Each compound was assayed on Escherichia coli (assay: MIC agar dilution, micro-organism 1 (10418)). Settings: Escherichia coli 10418; 22 hrs; read-out: MIC.
Type: cell-based
Procedure, shortened: (§1)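 Twofold dilutions of compound emulsions in water were set in Isosensitest agar with Brazier's CCEY medium, egg yolk and lysed horse blood. Spots of 1 µL from 0.5 McFarland suspensions diluted 1/15 were incubated aerobically at 37 °C and read at 22 and 48 h. MIC (mmol/L) was the lowest concentration giving <10 colonies.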
For `CCCCCCCCCCCCOCCOCCOCCOCCOCCO` [L5, Pentaethylene Glycol Monododecyl Ether], the MIC was > 880 µM. For `CCCCCCCCCCCCCCCCO` [C0, 1-Hexadecanol, reference compound], the MIC was > 880 µM.

Same assay, conditions: Escherichia coli 10418; 48 hrs; read-out: MIC
In the case of `CCCCCCCCCCCCOCCOCCOCCOCCOCCO` [L5, Pentaethylene Glycol Monododecyl Ether], the MIC is reported as > 880 µM. For `CCCCCCCCCCCCCCCCO` [C0, 1-Hexadecanol, reference compound], the MIC was > 880 µM.

The compounds below were run on Providencia rettgeri (assay: MIC agar dilution, micro-organism 3 (7475)). Settings: Providencia rettgeri 7475; 22 hrs; read-out: MIC.
Type: cell-based
Procedure, shortened: as §1
With `CCCCCCCCCCCCOCCOCCOCCOCCOCCO` [L5, Pentaethylene Glycol Monododecyl Ether] the MIC was > 880 µM. With `CCCCCCCCCCCCCCCCO` [C0, 1-Hexadecanol, reference compound] the MIC was 110 µM (≈ 26.7 µg/mL).

Same assay, conditions: Providencia rettgeri 7475; 48 hrs; read-out: MIC
With `CCCCCCCCCCCCOCCOCCOCCOCCOCCO` [L5, Pentaethylene Glycol Monododecyl Ether] the MIC was > 880 µM. Work on `CCCCCCCCCCCCCCCCO` [C0, 1-Hexadecanol, reference compound] yielded an MIC of 110 µM (≈ 26.7 µg/mL).

These compounds were tested on Enterococcus faecium (assay: MIC agar dilution, micro-organism 16 (7171)). Settings: Enterococcus faecium 7171; 22 hrs; read-out: MIC.
Type: cell-based
Procedure, shortened: as §1
Compound `CCCCCCCCCCCCOCCOCCOCCOCCOCCO` [L5, Pentaethylene Glycol Monododecyl Ether] has an MIC of 220 µM (≈ 89.5 µg/mL). For `CCCCCCCCCCCCCCCCO` [C0, 1-Hexadecanol, reference compound], the MIC was > 880 µM.

Same assay, conditions: Enterococcus faecium 7171; 48 hrs; read-out: MIC
For `CCCCCCCCCCCCOCCOCCOCCOCCOCCO` [L5, Pentaethylene Glycol Monododecyl Ether], the MIC was 220 µM (≈ 89.5 µg/mL). With `CCCCCCCCCCCCCCCCO` [C0, 1-Hexadecanol, reference compound] the MIC was > 880 µM.

What follows are compounds tested on Enterococcus faecalis (assay: MIC agar dilution, micro-organism 17 (775)). Settings: Enterococcus faecalis 775; 22 hrs; read-out: MIC.
Type: cell-based
Procedure, shortened: as §1
`CCCCCCCCCCCCOCCOCCOCCOCCOCCO` [L5, Pentaethylene Glycol Monododecyl Ether] showed an MIC of 110 µM (≈ 44.7 µg/mL). `CCCCCCCCCCCCCCCCO` [C0, 1-Hexadecanol, reference compound] was tested, and the MIC was > 880 µM.

Same assay, conditions: Enterococcus faecalis 775; 48 hrs; read-out: MIC
Compound `CCCCCCCCCCCCOCCOCCOCCOCCOCCO` [L5, Pentaethylene Glycol Monododecyl Ether] has an MIC of 110 µM (≈ 44.7 µg/mL). With `CCCCCCCCCCCCCCCCO` [C0, 1-Hexadecanol, reference compound] the MIC was > 880 µM.

What follows are compounds tested on Bacillus subtilis (assay: MIC agar dilution, micro-organism 18 (9372)). Settings: Bacillus subtilis 9372; 22 hrs; read-out: MIC.
Type: cell-based
Procedure, shortened: as §1
Work on `CCCCCCCCCCCCOCCOCCOCCOCCOCCO` [L5, Pentaethylene Glycol Monododecyl Ether] yielded an MIC of 110 µM (≈ 44.7 µg/mL). `CCCCCCCCCCCCCCCCO` [C0, 1-Hexadecanol, reference compound] was tested, and the MIC was > 880 µM.

Same assay, conditions: Bacillus subtilis 9372; 48 hrs; read-out: MIC
For `CCCCCCCCCCCCOCCOCCOCCOCCOCCO` [L5, Pentaethylene Glycol Monododecyl Ether], the MIC was 110 µM (≈ 44.7 µg/mL). For `CCCCCCCCCCCCCCCCO` [C0, 1-Hexadecanol, reference compound], the MIC was > 880 µM.

These compounds were tested on Candida albicans (assay: MIC agar dilution, micro-organism 19 (90028)). Settings: Candida albicans 90028; 22 hrs; read-out: MIC.
Type: cell-based
Procedure, shortened: as §1
In the case of `CCCCCCCCCCCCOCCOCCOCCOCCOCCO` [L5, Pentaethylene Glycol Monododecyl Ether], the MIC is reported as 440 µM (≈ 179 µg/mL). `CCCCCCCCCCCCCCCCO` [C0, 1-Hexadecanol, reference compound] was tested, and the MIC was > 880 µM.

Same assay, conditions: Candida albicans 90028; 48 hrs; read-out: MIC
`CCCCCCCCCCCCOCCOCCOCCOCCOCCO` [L5, Pentaethylene Glycol Monododecyl Ether] showed an MIC of 440 µM (≈ 179 µg/mL). For `CCCCCCCCCCCCCCCCO` [C0, 1-Hexadecanol, reference compound], the MIC was > 880 µM.

Each compound was assayed on Enterococcus faecium (VRE) MB 305 (assay: MIC agar dilution, VRE strain 25). Settings: 22 hrs.
Type: cell-based
Method: (§2) Molar equivalent concentrations were used to allow comparison between compounds of differing molecular mass. Due to weighing difficulties, any compound in solid form was melted in a water bath prior to dilution. To make ten-times strength concentrations, which takes into account agar dilution, 0.0352 mmol of each compound was weighed into plastic universal bottles and 4 mL of sterile distilled water (SDW) was added. To produce a homogenous emulsion the universals were vortexed; once achieved the emulsions were serial diluted by adding 2 mL to 2 mL of SDW.
(§3) For every 100 mL of Isosensitest agar (IST) (CM0471; Oxoid, Basingstoke, England), 3.1 g of the IST powder was added to 100 mL SDW (as per manufacturer's instructions) and sterilised for 15 minutes at 121° C. Once sterilised, the molten agar was cooled to 50° C. in a water-bath. Subsequently 4.8 g of CCEY powder (BC2160; Bioconnections, Wetherby, England), also known as Brazier's medium, was added to 100 mL SDW for every 100 mL of agar needed. This was then sterilised for 15 minutes at 121° C. Once sterilised the molten agar was cooled to 50° C. in a water-bath and 4 mL of egg-yolk emulsion (S2073; TCS Biosciences Ltd, Buckingham, United Kingdom) and 1 mL of lysed defibrinated horse blood (HB035; TCS Biosciences Ltd, Buckingham, United Kingdom) were also added for every 100 mL needed. Horse blood lysis is achieved by dilution to half concentration with SDW; when fully lysed the mixture will turn dark red in colour.
(§4) 18 mL agar was added to each universal and then poured into sterile Petri dishes. This step creates a 1/10 dilution resulting in agar plates of the required strength. Control plates for each set of strains were created by adding 18 mL of agar to 2 mL of SDW.
(§5) Suspensions of each bacterial species were prepared with a density equal to that of a 0.5 McFarland standard using a densitometer. All suspensions were made using sterile distilled water and fresh 18-20 hour cultures. As a 0.5 McFarland standard contains 1.5×10^8 CFU/mL and the multipoint inoculators applies 1 μL spots of liquid, each bacterial suspension was diluted 1/15 (20 μL suspension to 280 μL sterile distilled water).
(§6) Bacterial suspensions were prepared from fresh 18-24 hour cultures as previously described. 1 μL of each strain was inoculated onto all 100 agar plates containing a different chemical concentration and the 2 control plates. This was done using a multipoint inoculator which inoculates 20 strains per plate. All plates were incubated for 22 hours at 37° C. in aerobic conditions.
(§7) Each plate was examined for bacterial growth after 22 and 48 hours, with each being incubated in between examinations. A positive result was recorded as growth of ≧10 colonies. A negative result was recorded as growth of <10 colonies as this is equivalent to 99.9% inhibition. The lowest concentration of chemical that inhibited growth was recorded as the MIC. The results are recorded in Table IV below, where the numbers are quoted in mmol/L.
(§8) Given the positive performance of the ethoxylates of lauryl alcohol in reducing the MIC for a number of the micro-organisms tested, further MIC testing of Laureth-1 [C12E1] through to Laureth-8 [C12E8] was conducted on each of the following: • 10 strains of vancomycin-resistant enterococci (VRE)—listed in Table V below; and • 20 strains of methicillin-resistant Staphylococcus aureus (MRSA)—listed in Table VI.
(§9) The alkanol, alkanol derivatives, agar plates, and inocula were all prepared in the same way as described above.
(§10) The plates were examined in the same manner as described above and the results are recorded in Table VII below, where the numbers are quoted in mmol/L.
Work on `CCCCCCCCCCCCOCCOCCOCCOCCOCCO` [L5, Pentaethylene Glycol Monododecyl Ether] yielded an MIC of 110 µM (≈ 44.7 µg/mL).

Same assay, conditions: 48 hrs
With `CCCCCCCCCCCCOCCOCCOCCOCCOCCO` [L5, Pentaethylene Glycol Monododecyl Ether] the MIC was 110 µM (≈ 44.7 µg/mL).

Each compound was assayed on Enterococcus faecium (VRE) MB310 (assay: MIC agar dilution, VRE strain 29). Settings: 22 hrs.
Type: cell-based
Method: as §2, §3, §4, §5, §6, §7, §8, §9, §10
Compound `CCCCCCCCCCCCOCCOCCOCCOCCOCCO` [L5, Pentaethylene Glycol Monododecyl Ether] has an MIC of 110 µM (≈ 44.7 µg/mL).

Same assay, conditions: 48 hrs
Compound `CCCCCCCCCCCCOCCOCCOCCOCCOCCO` [L5, Pentaethylene Glycol Monododecyl Ether] has an MIC of 110 µM (≈ 44.7 µg/mL).

The compounds below were run on MRSA FIN 54518 (E7) (assay: MIC agar dilution, MRSA strain 31). Settings: Staphylococcus aureus, 22 hrs.
Type: cell-based
Method: as §2, §3, §4, §5, §6, §7, §8, §9, §10
`CCCCCCCCCCCCOCCOCCOCCOCCOCCO` [L5, Pentaethylene Glycol Monododecyl Ether] gave an MIC of 440 µM (≈ 179 µg/mL).

Same assay, conditions: Staphylococcus aureus, 48 hrs
Work on `CCCCCCCCCCCCOCCOCCOCCOCCOCCO` [L5, Pentaethylene Glycol Monododecyl Ether] yielded an MIC of 440 µM (≈ 179 µg/mL).

These compounds were tested on MRSA FIN 54511 (E6) (assay: MIC agar dilution, MRSA strain 32). Settings: Staphylococcus aureus, 22 hrs.
Type: cell-based
Method: as §2, §3, §4, §5, §6, §7, §8, §9, §10
`CCCCCCCCCCCCOCCOCCOCCOCCOCCO` [L5, Pentaethylene Glycol Monododecyl Ether] was tested, and the MIC was 110 µM (≈ 44.7 µg/mL).

Same assay, conditions: Staphylococcus aureus, 48 hrs
Compound `CCCCCCCCCCCCOCCOCCOCCOCCOCCO` [L5, Pentaethylene Glycol Monododecyl Ether] has an MIC of 220 µM (≈ 89.5 µg/mL).

What follows are compounds tested on MRSA GER 1966/97 (Hanover IIIc) (assay: MIC agar dilution, MRSA strain 36). Settings: Staphylococcus aureus, 22 hrs.
Type: cell-based
Method: as §2, §3, §4, §5, §6, §7, §8, §9, §10
`CCCCCCCCCCCCOCCOCCOCCOCCOCCO` [L5, Pentaethylene Glycol Monododecyl Ether] showed an MIC of 110 µM (≈ 44.7 µg/mL).

Same assay, conditions: Staphylococcus aureus, 48 hrs
For `CCCCCCCCCCCCOCCOCCOCCOCCOCCO` [L5, Pentaethylene Glycol Monododecyl Ether], the MIC was 110 µM (≈ 44.7 µg/mL).

These compounds were tested on MRSA FRA 95035 (assay: MIC agar dilution, MRSA strain 37). Settings: Staphylococcus aureus, 22 hrs.
Type: cell-based
Method: as §2, §3, §4, §5, §6, §7, §8, §9, §10
With `CCCCCCCCCCCCOCCOCCOCCOCCOCCO` [L5, Pentaethylene Glycol Monododecyl Ether] the MIC was 110 µM (≈ 44.7 µg/mL).

Same assay, conditions: Staphylococcus aureus, 48 hrs
Compound `CCCCCCCCCCCCOCCOCCOCCOCCOCCO` [L5, Pentaethylene Glycol Monododecyl Ether] has an MIC of 110 µM (≈ 44.7 µg/mL).

Each compound was assayed on MRSA NCTC 11939 (assay: MIC agar dilution, MRSA strain 50). Settings: Staphylococcus aureus; MRSA strain 50 NCTC 11939; 22 hrs.
Type: cell-based
Method: as §2, §3, §4, §5, §6, §7, §8, §9, §10
`CCCCCCCCCCCCOCCOCCOCCOCCOCCO` [L5, Pentaethylene Glycol Monododecyl Ether] was tested, and the MIC was 110 µM (≈ 44.7 µg/mL).

Same assay, conditions: Staphylococcus aureus; MRSA strain 50 NCTC 11939; 48 hrs
In the case of `CCCCCCCCCCCCOCCOCCOCCOCCOCCO` [L5, Pentaethylene Glycol Monododecyl Ether], the MIC is reported as 110 µM (≈ 44.7 µg/mL).
